In patent US20160046618A1, “Cyclopropyl Fused Thiazin-2-Amine Compounds as Beta-Secretase Inhibitors and Methods of Use” (AMGEN INC., priority 2014, published 2016) one finds IC50 data, which are given here for 16 compounds.

One experiment deals with human recombinant BACE1 (Homo sapiens (Human), UniProt P56817). The experiment in a line: In vitro enzymatic BACE1 FRET assay. The format is biochemical. Particulars: read-out: IC50 IP (μM) BACE1 enzyme. The method in brief:
(§1)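 Fluorescence from cleavage of a quenched peptide spanning the BACE site (50 nM) was read at 488 nm excitation, 590 nm emission. Purified enzyme (Ni-NTA) and compound reacted for one hour before a Tris stop shifted pH to neutral.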

The target in the next experiment is Recombinant Cat D (Homo sapiens (Human), UniProt P07339). Nature of the experiment: In vitro enzymatic Cathepsin D (Cat D) FRET assay. The format is biochemical. Particulars: read-out: IC50 IP (μM) CatD. An outline of the steps: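 Fluorescence at 500 nm excitation and 580 nm emission reports cleavage of a quenched fluorophore–quencher peptide (20 nM) by CHO-expressed Cat D. Reactions ran one hour in 0.05 M citrate pH 3.5, 5 mM CHAPS, 10% DMSO final before a Tris stop raised pH to neutrality.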

In experiment [1] the test system is Aβ40 in conditioned medium of cells stably expressing Amyloid Precursor Protein (APP). Nature of the experiment: In vitro BACE-1 cell-based assay (Aβ40 sandwich ELISA). Particulars: read-out: IC50 IP (μM) BACE1 cell. The method in brief:
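Aβ40 in supernatants measured by time-resolved fluorescence sandwich ELISA, with pAb40 as capture and biotin-6E10 as detector antibody, each incubated at 4 °C.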

A further experiment addresses human recombinant BACE2 (Homo sapiens (Human), UniProt Q9Y5Z0). The experiment in a line: In vitro enzymatic BACE2 FRET assay. The experiment is classed as biochemical. Particulars: read-out: IC50 IP (μM) BACE2 enzyme. An outline of the steps: as §1

Sequence of human recombinant BACE2 (Q9Y5Z0 63-518): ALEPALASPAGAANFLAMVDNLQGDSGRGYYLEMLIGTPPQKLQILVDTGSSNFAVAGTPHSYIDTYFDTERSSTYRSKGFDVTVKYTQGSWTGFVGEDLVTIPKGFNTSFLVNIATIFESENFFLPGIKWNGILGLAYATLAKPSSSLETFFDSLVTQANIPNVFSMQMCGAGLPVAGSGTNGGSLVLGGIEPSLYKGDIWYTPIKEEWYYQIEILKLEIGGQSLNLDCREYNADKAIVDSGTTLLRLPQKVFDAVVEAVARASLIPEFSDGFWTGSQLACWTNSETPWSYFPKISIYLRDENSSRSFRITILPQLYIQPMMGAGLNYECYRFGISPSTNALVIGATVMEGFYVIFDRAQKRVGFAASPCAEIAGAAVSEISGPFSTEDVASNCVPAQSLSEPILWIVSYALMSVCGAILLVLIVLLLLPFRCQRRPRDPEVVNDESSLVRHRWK
Sequence of human recombinant BACE1 (P56817 46-501): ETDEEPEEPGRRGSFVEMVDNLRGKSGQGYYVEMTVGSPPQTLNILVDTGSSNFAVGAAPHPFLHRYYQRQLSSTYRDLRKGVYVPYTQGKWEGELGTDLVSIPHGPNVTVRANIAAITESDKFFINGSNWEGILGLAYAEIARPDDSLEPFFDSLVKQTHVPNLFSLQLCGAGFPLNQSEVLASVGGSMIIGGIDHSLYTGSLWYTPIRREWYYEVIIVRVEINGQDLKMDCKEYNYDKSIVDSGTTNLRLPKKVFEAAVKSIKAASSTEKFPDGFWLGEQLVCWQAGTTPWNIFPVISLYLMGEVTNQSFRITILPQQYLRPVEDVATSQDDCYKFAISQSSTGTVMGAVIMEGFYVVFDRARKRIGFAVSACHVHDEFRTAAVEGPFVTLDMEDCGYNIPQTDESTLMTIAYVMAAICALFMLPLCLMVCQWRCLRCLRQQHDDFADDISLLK
Sequence of Recombinant Cat D (P07339 65-412): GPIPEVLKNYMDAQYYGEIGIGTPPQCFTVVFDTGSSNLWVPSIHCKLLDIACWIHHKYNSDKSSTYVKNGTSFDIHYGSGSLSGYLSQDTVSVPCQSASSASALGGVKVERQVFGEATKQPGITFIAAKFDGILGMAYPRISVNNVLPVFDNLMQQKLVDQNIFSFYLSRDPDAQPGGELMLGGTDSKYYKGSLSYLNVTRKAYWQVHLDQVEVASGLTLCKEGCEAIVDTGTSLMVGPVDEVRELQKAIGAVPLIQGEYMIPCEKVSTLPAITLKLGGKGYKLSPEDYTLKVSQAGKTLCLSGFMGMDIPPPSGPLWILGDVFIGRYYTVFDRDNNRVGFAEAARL

Turning to `C[C@H](Oc1cnc2c(Nc3cc(F)c(F)c([C@@]4(C)N=C(N)S[C@@]5(C#N)C[C@H]54)c3)nccc2n1)c1ncco1` [Example 939, (1S,5S,6S)-3-amino-5-(2,3-difluoro-5-((2-((1S)-1-(1,3-oxazol-2-yl)ethoxy)pyrido[3,4-b]pyrazin-5-yl)amino)phenyl)-5-methyl-2-thia-4-azabicyclo[4.1.0]hept-3-ene-1-carbonitrile], the IC50 on human recombinant BACE1 turned out to be 0.000867 µM; at Recombinant Cat D, 209 µM; in experiment [1] it was 0.165 µM; at human recombinant BACE2, 0.127 µM.

As to `C[C@]1(c2cc(NC(=O)c3cnc(OCC(F)(F)F)cn3)cc(F)c2F)N=C(N)S[C@@]2(C#N)C[C@H]21` [Example 940, N-(3-((1S,5S,6S)-3-amino-1-cyano-5-methyl-2-thia-4-azabicyclo[4.1.0]hept-3-en-5-yl)-4,5-difluorophenyl)-5-(2,2,2-trifluoroethoxy)-2-pyrazinecarboxamide], the concentration for half-maximal inhibition (IC50) on human recombinant BACE1 turned out to be 0.004 µM; at Recombinant Cat D it was 1390 µM; in experiment [1], 0.015 µM; on human recombinant BACE2, 0.0224 µM.

For the compound `C#CCOc1cnc2c(Nc3ccc(F)c([C@@]4(CF)N=C(N)S[C@@]5(COC)C[C@H]54)c3)ncnc2c1` [Example 942, N-(3-((1S,5S,6S)-3-amino-5-(fluoromethyl)-1-(methoxymethyl)-2-thia-4-azabicyclo[4.1.0]hept-3-en-5-yl)-4-fluorophenyl)-7-(2-propyn-1-yloxy)pyrido[3,2-d]pyrimidin-4-amine], the IC50 at human recombinant BACE1 came to 0.00314 µM; on Recombinant Cat D, 1090 µM; in experiment [1] it was 0.00518 µM; at human recombinant BACE2, 0.0417 µM.

For the compound `C#CCOc1cnc2c(Nc3cc(F)c(F)c([C@@]4(C)N=C(N)S[C@@]5(COC)C[C@H]54)c3)ncnc2c1` [Example 943, N-(3-((1S,5S,6S)-3-amino-1-(methoxymethyl)-5-methyl-2-thia-4-azabicyclo[4.1.0]hept-3-en-5-yl)-4,5-difluorophenyl)-7-(2-propyn-1-yloxy)pyrido[3,2-d]pyrimidin-4-amine], the IC50 stood at 0.00223 µM on human recombinant BACE1, 571 µM at Recombinant Cat D, 0.00593 µM in experiment [1] and 0.101 µM at human recombinant BACE2.

Regarding `C#CCOc1cnc2c(Nc3cnc(F)c([C@@]4(C)N=C(N)S[C@@]5(CF)C[C@H]54)c3)ncnc2c1` [Example 944, N-(5-((1S,5S,6S)-3-amino-1-(fluoromethyl)-5-methyl-2-thia-4-azabicyclo[4.1.0]hept-3-en-5-yl)-6-fluoro-3-pyridinyl)-7-(2-propyn-1-yloxy)pyrido[3,2-d]pyrimidin-4-amine], the half-inhibitory concentration (IC50) on human recombinant BACE1 is 0.00102 µM; at Recombinant Cat D it was over 400 µM; in experiment [1] it was 0.00216 µM; on human recombinant BACE2, 0.0696 µM.

As to `COCCOc1cnc2c(Nc3cc(F)c(F)c([C@@]4(C)N=C(N)S[C@@]5(COC)C[C@H]54)c3)ncnc2c1` [Example 946, N-(3-((1S,5S,6S)-3-amino-1-(methoxymethyl)-5-methyl-2-thia-4-azabicyclo[4.1.0]hept-3-en-5-yl)-4,5-difluorophenyl)-7-(2-methoxyethoxy)pyrido[3,2-d]pyrimidin-4-amine], the IC50 at human recombinant BACE1 came to 0.0268 µM; on Recombinant Cat D, 352 µM; in experiment [1], 0.0174 µM; on human recombinant BACE2, 0.517 µM.

Consider `COCCOc1cnc2c(Nc3ccc(F)c([C@@]4(CF)N=C(N)S[C@@]5(COC)C[C@H]54)c3)ncnc2c1` [Example 947, N-(3-((1S,5S,6S)-3-amino-5-(fluoromethyl)-1-(methoxymethyl)-2-thia-4-azabicyclo[4.1.0]hept-3-en-5-yl)-4-fluorophenyl)-7-(2-methoxyethoxy)pyrido[3,2-d]pyrimidin-4-amine], for which the 50% inhibitory concentration (IC50) at human recombinant BACE1 was determined as 0.0282 µM; on Recombinant Cat D it was 595 µM; in experiment [1] it was 0.0337 µM; on human recombinant BACE2 it was 0.519 µM.

Consider `COC[C@]12C[C@H]1[C@@](C)(c1cc(Nc3ncnc4cc(OCc5nc(C)oc5C)cnc34)cc(F)c1F)N=C(N)S2` [Example 948, N-(3-((1S,5S,6S)-3-amino-1-(methoxymethyl)-5-methyl-2-thia-4-azabicyclo[4.1.0]hept-3-en-5-yl)-4,5-difluorophenyl)-7-((2,5-dimethyl-1,3-oxazol-4-yl)methoxy)pyrido[3,2-d]pyrimidin-4-amine], for which the IC50 came out at 0.00304 µM on human recombinant BACE1, 80.9 µM on Recombinant Cat D, 0.0102 µM in experiment [1] and 0.144 µM at human recombinant BACE2.

As to `C[C@]1(c2cc(Nc3ncc(F)c4cc(OCc5ncco5)cnc34)cc(F)c2F)N=C(N)S[C@@]2(C(F)F)C[C@@H]12` [Example 949, N-(3-((1S,5S,6S)-3-amino-1-(difluoromethyl)-5-methyl-2-thia-4-azabicyclo[4.1.0]hept-3-en-5-yl)-4,5-difluorophenyl)-5-fluoro-3-(1,3-oxazol-2-ylmethoxy)-1,7-naphthyridin-8-amine], the IC50 is 0.00245 µM at human recombinant BACE1, 336 µM on Recombinant Cat D, 0.0841 µM in experiment [1] and 0.0588 µM at human recombinant BACE2.

For `COC[C@]12C[C@H]1[C@@](C)(c1cc(Nc3ncc(F)c4cc(OCc5ncco5)cnc34)cc(F)c1F)N=C(N)S2` [Example 950, N-(3-((1S,5S,6S)-3-amino-1-(methoxymethyl)-5-methyl-2-thia-4-azabicyclo[4.1.0]hept-3-en-5-yl)-4,5-difluorophenyl)-5-fluoro-3-(1,3-oxazol-2-ylmethoxy)-1,7-naphthyridin-8-amine], the IC50 on human recombinant BACE1 was 0.0051 µM; at Recombinant Cat D it was 384 µM; in experiment [1] it was 0.104 µM; on human recombinant BACE2 it was 0.118 µM.

`C#CCOc1cnc2c(Nc3cc(F)c(F)c([C@@]4(C)N=C(N)S[C@@]5(COC)C[C@H]54)c3)ncc(F)c2c1` [Example 951, N-(3-((1S,5S,6S)-3-amino-1-(methoxymethyl)-5-methyl-2-thia-4-azabicyclo[4.1.0]hept-3-en-5-yl)-4,5-difluorophenyl)-5-fluoro-3-(2-propyn-1-yloxy)-1,7-naphthyridin-8-amine]: the IC50 on human recombinant BACE1 was determined as 0.00233 µM; on Recombinant Cat D it was 915 µM; in experiment [1] it was 0.0603 µM; on human recombinant BACE2, 0.0497 µM.

Consider `CCC#CCOc1cnc2c(Nc3ccc(F)c([C@@]4(CF)N=C(N)S[C@@]5(/C=C/C(=O)N(C)C)C[C@H]54)c3)nccc2n1` [Example 952, (2E)-3-((1R,5S,6S)-3-amino-5-(fluoromethyl)-5-(2-fluoro-5-((2-(2-pentyn-1-yloxy)pyrido[3,4-b]pyrazin-5-yl)amino)phenyl)-2-thia-4-azabicyclo[4.1.0]hept-3-en-1-yl)-N,N-dimethyl-2-propenamide], for which the IC50 on human recombinant BACE1 amounted to 0.00126 µM; on Recombinant Cat D, 16.3 µM; in experiment [1] it was 0.0108 µM; at human recombinant BACE2, 0.00755 µM.

Regarding `C#CCOc1cnc(C(=O)Nc2ccc(F)c([C@@]3(CF)N=C(N)S[C@@]4(COCC(F)(F)F)C[C@H]43)c2)cn1` [Example 953, N-(3-((1S,5S,6S)-3-amino-5-(fluoromethyl)-1-((2,2,2-trifluoroethoxy)methyl)-2-thia-4-azabicyclo[4.1.0]hept-3-en-5-yl)-4-fluorophenyl)-5-(2-propyn-1-yloxy)-2-pyrazinecarboxamide], the IC50 on human recombinant BACE1 came out at 0.00028 µM; at Recombinant Cat D, 61.9 µM; in experiment [1], 0.00149 µM; on human recombinant BACE2 it was 0.0267 µM.

For `NC1=N[C@](CF)(c2cc(NC(=O)c3ccc(Cl)cn3)ccc2F)[C@@H]2C[C@]2(COCC(F)(F)F)S1` [Example 954, N-(3-((1S,5S,6S)-3-amino-5-(fluoromethyl)-1-((2,2,2-trifluoroethoxy)methyl)-2-thia-4-azabicyclo[4.1.0]hept-3-en-5-yl)-4-fluorophenyl)-5-chloro-2-pyridinecarboxamide], the IC50 stood at 0.00579 µM on human recombinant BACE1, 715 µM on Recombinant Cat D, 0.0144 µM in experiment [1] and 0.00382 µM on human recombinant BACE2.

`C#CCOc1cnc(C(=O)Nc2ccc(F)c([C@@]3(CF)N=C(N)S[C@@]4(COC(C)C)C[C@H]43)c2)cn1` [Example 955, N-(3-((1S,5S,6S)-3-amino-5-(fluoromethyl)-1-((1-methylethoxy)methyl)-2-thia-4-azabicyclo[4.1.0]hept-3-en-5-yl)-4-fluorophenyl)-5-(2-propyn-1-yloxy)-2-pyrazinecarboxamide]: the IC50 at human recombinant BACE1 stood at 0.000805 µM; on Recombinant Cat D, 48 µM; in experiment [1], 0.00178 µM; on human recombinant BACE2 it was 0.0501 µM.

Consider `NC1=N[C@](CF)(c2cc(NC(=O)c3ccc(Cl)cn3)ccc2F)[C@@H]2C[C@]2(c2c[nH]nn2)S1` [Example 956, N-(3-((1S,5S,6S)-3-amino-5-(fluoromethyl)-1-(1H-1,2,3-triazol-4-yl)-2-thia-4-azabicyclo[4.1.0]hept-3-en-5-yl)-4-fluorophenyl)-5-chloro-2-pyridinecarboxamide], for which the IC50 on human recombinant BACE1 was 0.000927 µM; on Recombinant Cat D, 341 µM; in experiment [1], 0.019 µM; at human recombinant BACE2 it was under 0.00203 µM.
